Values after ≈ are worked out from the molar mass of the structure shown.

Assay type in all cases: functional, cell-based
In one assay the test system is HT-29. The assay is described as follows: Growth inhibition of human HT29 cells.
Another assay has as its system P388. The assay is described as follows: Growth inhibition of mouse P388 cells.
The nature of assay [1]: Growth inhibition of human colon cancer cells. To be noted: Cancer cell lines.
Assay [2] in a line: Growth inhibition of human lung cancer cells. The conditions noted are these: Cancer cell lines.
A short description of assay [3]: Growth inhibition of human breast cancer cells. The conditions noted are these: Cancer cell lines.
A short description of assay [4]: Growth inhibition of human CNS cancer cells. The conditions noted are these: Cancer cell lines.
Assay [5] in a line: Growth inhibition of human prostate cancer cells. To be noted: cancer cell lines.

For `COc1cc([C@@H]2c3cc4c(c(O)c3C[C@H]3COC(=O)[C@@H]32)OCO4)cc(OC)c1OC` [BETA-PELTATIN A], the IC50 in the assay with HT-29 and in the assay with P388 was 2.5 ng/mL (≈ 6.03 nM) each time.
In the case of `CC(=O)OC(C)(C)/C=C/C(=O)[C@](C)(O)[C@H]1[C@H](O)C[C@@]2(C)[C@@H]3CC=C4[C@H](C[C@H](O)C(=O)C4(C)C)[C@]3(C)C(=O)C[C@]12C` [CUCURBITACIN B], the IC50 in assay [1], in assay [2], in assay [3] and in assay [4] was less than 0.4 µM throughout.
On to `CC(C)(O)/C=C/C(=O)[C@](C)(O)[C@H]1[C@H](O)C[C@@]2(C)[C@@H]3CC=C4[C@@H](C[C@H](O)C(=O)C4(C)C)[C@]3(C)C(=O)C[C@]12C` [CUCURBITACIN D], for which the IC50 in assay [1], in assay [2], in assay [3] and in assay [4] was less than 0.4 µM throughout.
In the case of `CC(=O)OC(C)(C)/C=C/C(=O)[C@](C)(O)[C@H]1[C@H](O)C[C@@]2(C)[C@@H]3CC=C4[C@@H](C=C(O)C(=O)C4(C)C)[C@]3(C)C(=O)C[C@]12C` [CUCURBITACIN E], the IC50 in assay [1] is less than 0.4 µM; in assay [2], less than 0.4 µM; in assay [3], less than 0.4 µM; in assay [5], 7 nmol; in assay [4], less than 0.4 µM.
Turning to `CC(C)(O)/C=C/C(=O)[C@](C)(O)[C@H]1[C@H](O)C[C@@]2(C)[C@@H]3CC=C4[C@@H](C=C(O)C(=O)C4(C)C)[C@]3(C)C(=O)C[C@]12C` [CUCURBITACIN I], the IC50 in assay [1], in assay [2], in assay [3] and in assay [4] was less than 0.4 µM in each case.
For the compound `COc1cc([C@@H]2c3cc4c(cc3C[C@H]3COC(=O)[C@@H]32)OCO4)cc(OC)c1OC` [DESOXYPODOPHYLLOTOXIN], the IC50 in the assay on HT-29 and in the assay on P388 was 2.5 ng/mL (≈ 6.27 nM) each time.

(Values after ChEMBL document CHEMBL1148157, “An analysis of cytotoxic botanical formulations used in the traditional medicine of ancient Persia as abortifacients” (J Nat Prod, 2004).)
